Consider five compounds from the supplement of paper PMC10307832.

The subject of the first assay is HCC-15. In words: relative viability (nuclei count vs DMSO), 5 days (fraction); higher = more cells survive. As to conditions: first compound 0.8 µM. Summed up: (§1)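 Values are medians from duplicate plates. Each reflects relative viability, defined as the nuclei count of treated wells over that of vehicle wells. Lung cancer cell lines in 1536-well plates were pin-tool dosed one day after seeding with one drug alone or with a fixed anchor-drug dose plus five library-drug doses (not always all listed) in √10 steps, then fixed, stained and imaged at 4× after 5 days.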
Compound `Nc1cccc2c1CN(C1CCC(=O)NC1=O)C2=O` (stereo not given) [Lenalidomide] + CC(=O)c1c(C)c2cnc(Nc3ccc(N4CCNCC4)cn3)nc2n(C2CCCC2)c1=O [Palbociclib] (partner 0.5 µM) registered a relative viability of 0.683.

For `Nc1cccc2c1CN(C1CCC(=O)NC1=O)C2=O` (stereo not given) [Lenalidomide] + O=C(CCCCCCC(=O)Nc1ccccc1)NO [Vorinostat] (partner 1 µM), the relative viability was 0.855.

Regarding `Nc1cccc2c1CN(C1CCC(=O)NC1=O)C2=O` (stereo not given) [Lenalidomide] + COc1cccc2cc(-c3nc([C@H]4CC[C@H](C(=O)O)CC4)n4ncnc(N)c34)[nH]c12 [OSI-027] (partner 0.5 µM), the relative viability worked out at 0.578.

The assay is the same for the next values; noted with them: first compound 2.53 µM.
`Nc1cccc2c1CN(C1CCC(=O)NC1=O)C2=O` (stereo not given) [Lenalidomide] + N=C(N)NC(=N)NCCc1ccccc1 [Phenformin] (partner 250 µM) registered a relative viability of 0.53.

Regarding `Nc1cccc2c1CN(C1CCC(=O)NC1=O)C2=O` (stereo not given) [Lenalidomide] + Cc1cc(Nc2cc(N3CCN(C)CC3)nc(Sc3ccc(NC(=O)C4CC4)cc3)n2)n[nH]1 [Tozasertib] (partner 0.1 µM), the relative viability turned out to be 0.446.

In turn, `Nc1cccc2c1CN(C1CCC(=O)NC1=O)C2=O` (stereo not given) [Lenalidomide] + CC(=O)c1c(C)c2cnc(Nc3ccc(N4CCNCC4)cn3)nc2n(C2CCCC2)c1=O [Palbociclib] (partner 0.5 µM) registered a relative viability of 0.904.

`Nc1cccc2c1CN(C1CCC(=O)NC1=O)C2=O` (stereo not given) [Lenalidomide] + O=C(CCCCCCC(=O)Nc1ccccc1)NO [Vorinostat] (partner 1 µM) yielded a relative viability of 0.917.

`Nc1cccc2c1CN(C1CCC(=O)NC1=O)C2=O` (stereo not given) [Lenalidomide] + COc1cccc2cc(-c3nc([C@H]4CC[C@H](C(=O)O)CC4)n4ncnc(N)c34)[nH]c12 [OSI-027] (partner 0.5 µM) gave a relative viability of 0.826.

Still in this assay, the particulars now being: first compound 8 µM.
Consider `Nc1cccc2c1CN(C1CCC(=O)NC1=O)C2=O` (stereo not given) [Lenalidomide] + N=C(N)NC(=N)NCCc1ccccc1 [Phenformin] (partner 250 µM), for which the relative viability turned out to be 0.482.

In turn, `Nc1cccc2c1CN(C1CCC(=O)NC1=O)C2=O` (stereo not given) [Lenalidomide] + Cc1cc(Nc2cc(N3CCN(C)CC3)nc(Sc3ccc(NC(=O)C4CC4)cc3)n2)n[nH]1 [Tozasertib] (partner 0.1 µM) came in with a relative viability of 0.496.

Take `Nc1cccc2c1CN(C1CCC(=O)NC1=O)C2=O` (stereo not given) [Lenalidomide] + CC(=O)c1c(C)c2cnc(Nc3ccc(N4CCNCC4)cn3)nc2n(C2CCCC2)c1=O [Palbociclib] (partner 0.5 µM): the relative viability amounted to 0.708.

`Nc1cccc2c1CN(C1CCC(=O)NC1=O)C2=O` (stereo not given) [Lenalidomide] + O=C(CCCCCCC(=O)Nc1ccccc1)NO [Vorinostat] (partner 1 µM) gave a relative viability of 0.795.

`Nc1cccc2c1CN(C1CCC(=O)NC1=O)C2=O` (stereo not given) [Lenalidomide] + COc1cccc2cc(-c3nc([C@H]4CC[C@H](C(=O)O)CC4)n4ncnc(N)c34)[nH]c12 [OSI-027] (partner 0.5 µM) returned a relative viability of 0.689.

The test system of a further assay is HCC-827. The description is as above. To be noted: first compound 0.253 µM. Summed up: as §1
`Nc1cccc2c1CN(C1CCC(=O)NC1=O)C2=O` (stereo not given) [Lenalidomide] + N=C(N)NC(=N)NCCc1ccccc1 [Phenformin] (partner 250 µM) registered a relative viability of 0.408.

In turn, `Nc1cccc2c1CN(C1CCC(=O)NC1=O)C2=O` (stereo not given) [Lenalidomide] + Cc1cc(Nc2cc(N3CCN(C)CC3)nc(Sc3ccc(NC(=O)C4CC4)cc3)n2)n[nH]1 [Tozasertib] (partner 0.1 µM) yielded a relative viability of 0.47.

In the case of `Nc1cccc2c1CN(C1CCC(=O)NC1=O)C2=O` (stereo not given) [Lenalidomide] + CC(=O)c1c(C)c2cnc(Nc3ccc(N4CCNCC4)cn3)nc2n(C2CCCC2)c1=O [Palbociclib] (partner 0.5 µM), the relative viability stood at 0.506.

The compound `Nc1cccc2c1CN(C1CCC(=O)NC1=O)C2=O` (stereo not given) [Lenalidomide] + O=C(CCCCCCC(=O)Nc1ccccc1)NO [Vorinostat] (partner 1 µM) came in with a relative viability of 1.04.

As for `Nc1cccc2c1CN(C1CCC(=O)NC1=O)C2=O` (stereo not given) [Lenalidomide] + COc1cccc2cc(-c3nc([C@H]4CC[C@H](C(=O)O)CC4)n4ncnc(N)c34)[nH]c12 [OSI-027] (partner 0.5 µM), the relative viability is 0.807.

The assay is the same for the next values; noted with them: first compound 0.8 µM.
The compound `Nc1cccc2c1CN(C1CCC(=O)NC1=O)C2=O` (stereo not given) [Lenalidomide] + N=C(N)NC(=N)NCCc1ccccc1 [Phenformin] (partner 250 µM) yielded a relative viability of 0.425.

`Nc1cccc2c1CN(C1CCC(=O)NC1=O)C2=O` (stereo not given) [Lenalidomide] + Cc1cc(Nc2cc(N3CCN(C)CC3)nc(Sc3ccc(NC(=O)C4CC4)cc3)n2)n[nH]1 [Tozasertib] (partner 0.1 µM) came in with a relative viability of 0.41.

Regarding `Nc1cccc2c1CN(C1CCC(=O)NC1=O)C2=O` (stereo not given) [Lenalidomide] + CC(=O)c1c(C)c2cnc(Nc3ccc(N4CCNCC4)cn3)nc2n(C2CCCC2)c1=O [Palbociclib] (partner 0.5 µM), the relative viability turned out to be 0.432.

For the compound `Nc1cccc2c1CN(C1CCC(=O)NC1=O)C2=O` (stereo not given) [Lenalidomide] + O=C(CCCCCCC(=O)Nc1ccccc1)NO [Vorinostat] (partner 1 µM), the relative viability was 0.763.

As to `Nc1cccc2c1CN(C1CCC(=O)NC1=O)C2=O` (stereo not given) [Lenalidomide] + COc1cccc2cc(-c3nc([C@H]4CC[C@H](C(=O)O)CC4)n4ncnc(N)c34)[nH]c12 [OSI-027] (partner 0.5 µM), the relative viability amounted to 0.74.

Still in this assay, the particulars now being: first compound 2.53 µM.
In turn, `Nc1cccc2c1CN(C1CCC(=O)NC1=O)C2=O` (stereo not given) [Lenalidomide] + N=C(N)NC(=N)NCCc1ccccc1 [Phenformin] (partner 250 µM) came in with a relative viability of 0.432.

For `Nc1cccc2c1CN(C1CCC(=O)NC1=O)C2=O` (stereo not given) [Lenalidomide] + Cc1cc(Nc2cc(N3CCN(C)CC3)nc(Sc3ccc(NC(=O)C4CC4)cc3)n2)n[nH]1 [Tozasertib] (partner 0.1 µM), the relative viability stood at 0.455.

Regarding `Nc1cccc2c1CN(C1CCC(=O)NC1=O)C2=O` (stereo not given) [Lenalidomide] + CC(=O)c1c(C)c2cnc(Nc3ccc(N4CCNCC4)cn3)nc2n(C2CCCC2)c1=O [Palbociclib] (partner 0.5 µM), the relative viability is 0.538.

Regarding `Nc1cccc2c1CN(C1CCC(=O)NC1=O)C2=O` (stereo not given) [Lenalidomide] + O=C(CCCCCCC(=O)Nc1ccccc1)NO [Vorinostat] (partner 1 µM), the relative viability was 0.985.

Compound `Nc1cccc2c1CN(C1CCC(=O)NC1=O)C2=O` (stereo not given) [Lenalidomide] + COc1cccc2cc(-c3nc([C@H]4CC[C@H](C(=O)O)CC4)n4ncnc(N)c34)[nH]c12 [OSI-027] (partner 0.5 µM) yielded a relative viability of 0.849.

Still in this assay, the particulars now being: first compound 8 µM.
With `Nc1cccc2c1CN(C1CCC(=O)NC1=O)C2=O` (stereo not given) [Lenalidomide] + N=C(N)NC(=N)NCCc1ccccc1 [Phenformin] (partner 250 µM), the relative viability turned out to be 0.437.

As to `Nc1cccc2c1CN(C1CCC(=O)NC1=O)C2=O` (stereo not given) [Lenalidomide] + Cc1cc(Nc2cc(N3CCN(C)CC3)nc(Sc3ccc(NC(=O)C4CC4)cc3)n2)n[nH]1 [Tozasertib] (partner 0.1 µM), the relative viability was determined as 0.462.
